In patent US7528159B2, “5-aryl pyridines as 11-beta inhibitors for the treatment of diabetes” (Hoffmann-La Roche Inc., priority 2004, dated 2009):

Biological target: T1, human 11beta-HSD1 (Homo sapiens, UniProt P28845)
T1 construct: made in house; host or cells: HEK293 cells (ATCC CRL-1573), transient transfection with lipofectamine; microsomal fraction used
Assay: Microsome assay (cortisone to cortisol conversion, ELISA)
Format: biochemical
Details: microsomes from HEK293 cells transiently expressing human 11beta-HSD1; 60 min, 37° C.; read-out: h 11-beta-HSD 1 IC50
Experimental: The cDNA encoding the human 11beta-HSD1 protein was cloned into the expression vector pcDNA3 (Stratagene). This construct (for details see Alex Odermatt et al.; J Biol. Chem., 1999, Vol. 274, Issue 40, 28762-28770) was used to transiently express the protein in HEK293 cells (ATCC number: CRL-1573, described in Graham, F. L., Smiley, J., Russell, W. C., Nairn, R.; (1977)) using lipofectamine. 48 h after transfection cells were washed twice with ice-cold PBS (Phosphate buffered Saline). To 1 volume of cell suspension in PBS 2 volumes of ice-cold lysis buffer (50 mM Tris; pH7.5; 1 mM EDTA; 100 mM NaCl) were added. The cells were lysed by Potter-homogenization (20 strokes). The resulting homogenate was sonicated with a tip sonicator (10% output; 2×30 sec.) and cleared by a low speed centrifugation (10 min×9000 g; 4° C.). The microsomal fraction was collected by a high speed centrifugation (60 min×110'000 g). […]
Microsomes isolated from HEK293 cells transiently expressing human 11beta-HSD1 (for details see above) were incubated in assay buffer (100 mM NaCl; 1 mM EDTA; 1 mM EGTA; 1 mM MgCl; 250 mM Sucrose; 20 mM Tris pH 7.4; Cortisone 50-200 nM and NADPH 1 mM) together with different concentrations of test substances. […] The amount of Cortisol produced in this assay was determined using a commercially available, ELISA-based Cortisol-detection kit (Distributed by Assay Design, Inc.). […]

T1 sequence (P28845 whole entry): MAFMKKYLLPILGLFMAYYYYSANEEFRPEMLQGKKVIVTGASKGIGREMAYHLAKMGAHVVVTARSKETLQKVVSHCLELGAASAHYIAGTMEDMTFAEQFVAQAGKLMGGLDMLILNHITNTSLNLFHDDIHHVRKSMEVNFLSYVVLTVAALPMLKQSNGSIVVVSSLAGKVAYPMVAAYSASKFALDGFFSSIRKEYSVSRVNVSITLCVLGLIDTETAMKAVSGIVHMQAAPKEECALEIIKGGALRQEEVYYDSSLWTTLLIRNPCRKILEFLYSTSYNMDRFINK

Structure (SMILES)	IC50 [nM]
Cc1c(Cl)cccc1S(=O)(=O)Nc1ccc(-c2ccccc2Cl)cn1 [Example 2, 3-chloro-N-[5-(2-chloro-phenyl)-pyridin-2-yl]-2-methyl-benzenesulfonamide]	3
Cc1cc(F)ccc1-c1ccc(NS(=O)(=O)c2cccc(Cl)c2)nc1C [Example 110, 3-Chloro-N-[5-(4-fluoro-2-methyl-phenyl)-6-methyl-pyridin-2-yl]-benzenesulfonamide]	12
